Results taken from patent US20240041042A1, “1-(PYRIDYL)-5-AZINYLPYRAZOLE DERIVATIVES, AND THEIR USE FOR CONTROL OF UNDESIRED PLANT GROWTH” (Bayer Aktiengesellschaft, priority 2020, published 2024).

Assays:
Type in all cases: in vivo
[1] = test system: Verconica persica (VERPE); experiment: Post-emergence herbicidal action against VERPE
In short: (§1)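 Greenhouse plants sprayed at the one-leaf stage, 2–3 weeks after sowing, with WP or EC formulations plus 0.5% additive at 600 l/ha water. Activity rated visually after about 3 weeks versus untreated controls (100% = dead, 0% = like control), at 320 g/ha or lower.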

[2] = test system: Abutilon theophrasti (ABUTH); experiment: Pre-emergence herbicidal action against ABUTH; details: Dosage column 320 g/ha (title prints 3200 g/ha); scored visually after about 3 weeks; 100% = plants have died
In short: (§2)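 Seeds sown in pots and covered with soil; WP or EC formulations sprayed onto the soil surface at 600 l/ha water with 0.5% additive, at 320 g/ha or lower. Greenhouse growth for about 3 weeks, then visual scoring as % effect against untreated controls (100% = plants dead).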

[3] = test system: Alopecurus myosuroides (ALOMY); experiment: Pre-emergence herbicidal action against ALOMY; details: scored visually after about 3 weeks, 100% = plants have died
In short: as §2

Lolium rigidum (LOLRI) [4] = experiment: Post-emergence herbicidal action against LOLRI; details: dosage 320 g/ha
In short: as §1

[5] = test system: Pharbitis purpurea (PHBPU); experiment: Pre-emergence herbicidal action against PHBPU
In short: as §2

[6] = test system: Matricaria inodora (MATIN); experiment: Post-emergence herbicidal action against MATIN
In short: as §1

Viola tricolor (VIOTR) [7] = experiment: Post-emergence herbicidal action against VIOTR
In short: as §1

[8] = test system: Verconica persica (VERPE); experiment: Pre-emergence herbicidal action against VERPE; details: dosage 320 g/ha
In short: as §2

[9] = test system: Echinochloa crus-galli (ECHCG); experiment: Post-emergence herbicidal action against ECHCG
In short: as §1

Viola tricolor (VIOTR) [10] = experiment: Pre-emergence herbicidal action against VIOTR
In short: as §2

Lolium rigidum (LOLRI) [11] = experiment: Pre-emergence herbicidal action against LOLRI; details: dosage 320 g/ha
In short: as §2

[12] = test system: Echinochloa crus-galli (ECHCG); experiment: Pre-emergence herbicidal action against ECHCG
In short: as §2

Setaria viridis (SETVI) [13] = experiment: Post-emergence herbicidal action against SETVI
In short: as §1

Avena fatua (AVEFA) = experiment: Pre-emergence herbicidal action against AVEFA; details: 320 g/ha, visual scoring after about 3 weeks vs untreated controls
In short: as §2

[14] = test system: Amaranthus retroflexus (AMARE); experiment: Pre-emergence herbicidal action against AMARE; details: visual scoring after about 3 weeks vs untreated controls
In short: as §2

[15] = test system: Matricaria inodora (MATIN); experiment: Pre-emergence herbicidal action against MATIN
In short: as §2

Setaria viridis (SETVI) [16] = experiment: Pre-emergence herbicidal action against SETVI
In short: as §2

[17] = test system: Polygonum convolvulus (POLCO); experiment: Pre-emergence herbicidal action against POLCO
In short: as §2

[18] = test system: Alopecurus myosuroides (ALOMY); experiment: Post-emergence herbicidal action against ALOMY; details: visual rating about 3 weeks after treatment vs untreated controls (100% = plants have died, 0% = like control plants)
In short: as §1

[19] = test system: Pharbitis purpurea (PHBPU); experiment: Post-emergence herbicidal action against PHBPU
In short: as §1

## CCOC(=O)COc1nn(-c2ncccc2C)c(-c2cncc(F)c2)c1Br [Example I-211]
[1]; 320 g/ha, VERPE
  Post-emergence action against VERPE in %: 90%
[1]; dosage 80 g/ha
  Post-emergence action against VERPE in %: 80%
[2]
  Pre-emergence action against ABUTH: 80%
[3]; 80 g/ha
  Pre-emergence action against ALOMY: 80%
[3]; 320 g/ha
  Pre-emergence action against ALOMY: 100%
Lolium rigidum (LOLRI) [4]
  Post-emergence action against LOLRI in %: 80%
[5]; dosage 80 g/ha
  Pre-emergence action against PHBPU in %: 90%
[5]; dosage 320 g/ha
  Pre-emergence action against PHBPU in %: 90%
[6]; dosage 80 g/ha
  Post-emergence action against MATIN in %: 80%
[6]; dosage 320 g/ha
  Post-emergence action against MATIN in %: 80%
Viola tricolor (VIOTR) [7]; 80 g/ha
  Post-emergence action against VIOTR in %: 80%
Viola tricolor (VIOTR) [7]; 320 g/ha
  Post-emergence action against VIOTR in %: 90%
[8]
  Pre-emergence action against VERPE in %: 100%
[9]; dosage 80 g/ha
  Post-emergence action against ECHCG in %: 80%
[9]; dosage 320 g/ha
  Post-emergence action against ECHCG in %: 80%
Viola tricolor (VIOTR) [10]; 320 g/ha, Viola tricolor
  Pre-emergence action against VIOTR in %: 100%
Viola tricolor (VIOTR) [10]; dosage 80 g/ha
  Pre-emergence action against VIOTR in %: 90%
Lolium rigidum (LOLRI) [11]
  Pre-emergence action against LOLRI in %: 80%
[12]; dosage 80 g/ha
  Pre-emergence action against ECHCG in %: 90%
[12]; dosage 320 g/ha
  Pre-emergence action against ECHCG in %: 100%
Setaria viridis (SETVI) [13]; dosage 80 g/ha
  Post-emergence action against SETVI in %: 80%
Setaria viridis (SETVI) [13]; dosage 320 g/ha
  Post-emergence action against SETVI in %: 80%
Avena fatua (AVEFA)
  Pre-emergence action against AVEFA in %: 90%
[14]; 80 g/ha
  Pre-emergence action against AMARE in %: 100%
[14]; 320 g/ha
  Pre-emergence action against AMARE in %: 100%
[15]; dosage 80 g/ha
  Pre-emergence action against MATIN in %: 90%
[15]; dosage 320 g/ha
  Pre-emergence action against MATIN in %: 90%
Setaria viridis (SETVI) [16]; dosage 80 g/ha
  Pre-emergence action against SETVI in %: 90%
Setaria viridis (SETVI) [16]; dosage 320 g/ha
  Pre-emergence action against SETVI in %: 100%
[17]; dosage 80 g/ha
  Pre-emergence action against POLCO in %: 90%
[17]; dosage 320 g/ha
  Pre-emergence action against POLCO in %: 90%
[18]; 80 g/ha
  Post-emergence action against ALOMY in %: 80%
[18]; 320 g/ha
  Post-emergence action against ALOMY in %: 90%
[19]; dosage 80 g/ha
  Post-emergence action against PHBPU in %: 90%
[19]; dosage 320 g/ha
  Post-emergence action against PHBPU in %: 100%
